Nine molecules from PubChem BioAssay (NCI) can be followed below.

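Cells were grown in 96-well plates and exposed to each compound for 48 hours at five concentrations; endpoints were interpolated linearly between bracketing concentrations, or set to the highest concentration if not reached. TGI: total growth inhibition.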 Bounds are passed on as bounds.

Experiment in all cases: NCI tumour cell line growth inhibition, 48 h
The test system of test [1] is 786-0 renal.
In test [2] the test system is CAKI-1 renal.
Test [3] has as its system HCT-15 colon.
In test [4] the test system is HOP-92 NSCLC.
Test [5] deals with NCI-H226 lung.
The test system of test [6] is NCI-H522 lung.
The test system of test [7] is OVCAR-8 ovarian.
In test [8] the test system is RXF 393 renal.
In test [9] the test system is SF-268 CNS.
For test [10], the system named is SN12C renal.
Test [11] deals with SNB-75 CNS.
Test [12] relates to SR leukemia.
Test [13] relates to SW-620 colon.
For test [14], the system named is UACC-257 melanoma.
Test [15] concerns UO-31 renal.
Test [16] concerns OVCAR-4 ovarian.
Test [17] has as its system PC-3 prostate.

With `CC1=NN(c2ccccc2)C(=O)C1=C1SCCCS1`, the TGI in [1] is greater than 100 µM; in test [2] it was 52.1 µM; in test [3] it was greater than 100 µM; in [4], 64 µM; in [5], greater than 100 µM; in [6] it was 37.5 µM. The TGI in [7] is greater than 100 µM; in [8] it was 60.7 µM; in test [9], greater than 100 µM; in test [10] it was 83.2 µM; in test [11] it was greater than 100 µM; in test [12], 34.5 µM. Besides, the TGI was 26.6 µM in test [13], 94.1 µM in test [14] and greater than 100 µM in test [15].

`COCC12CC(CC1=O)C1C2ON2c3ccccc3C(=O)C12c1ccccc1` (stereo unspecified): the TGI in test [1], in test [3], in [4], in [5], in test [6] and in test [16] was greater than 100 µM throughout. Moreover, the TGI in [7], in [8], in test [9], in test [10], in test [11] and in test [12] was greater than 100 µM in each case. Further, the TGI in [13], in [14] and in test [15] was greater than 100 µM each time.

Take `COc1cc(C2C(Cl)C(=O)N2NC(=O)Cc2ccccc2)ccc1O` (stereo unspecified): the TGI was greater than 100 µM in test [1]; greater than 100 µM in test [2]; greater than 100 µM in test [3]; greater than 100 µM in test [5]; 56.3 µM in test [6]; greater than 100 µM in test [16]. Also, the TGI in test [7] was greater than 100 µM; in test [8], greater than 100 µM; in test [9], greater than 100 µM; in test [10], greater than 100 µM; in [11] it was greater than 100 µM; in test [12], 83.4 µM. The TGI in test [13], in test [14] and in [15] was greater than 100 µM throughout.

Turning to `Cn1c2c(cc(-c3ccccc3)c1=O)COc1ccccc1-2`, the TGI in [1] is greater than 100 µM; in [2], greater than 100 µM; in test [3], greater than 100 µM; in test [4], greater than 100 µM; in [5] it was greater than 100 µM; in test [6], 52.3 µM. The TGI in test [16], in [7], in test [8], in test [9], in [10] and in test [11] was greater than 100 µM each time. The TGI in [12] is greater than 100 µM; in test [13], greater than 100 µM; in [14], greater than 100 µM; in [15], 63.3 µM.

With `O=C(Nc1cc(Cl)c(Cl)cc1Cl)C(=O)C(C(=O)c1ccc2ccccc2c1)C1OC(=O)c2ccccc21` (stereo unspecified), the TGI came out at 20.9 µM in [1]; 45.2 µM in test [3]; 7.96 µM in test [4]; 7.13 µM in test [5]; 26.9 µM in test [6]; 23.6 µM in test [7]. Moreover, the TGI in [8] is 15.1 µM; in [10] it was 42.5 µM; in test [12], greater than 100 µM; in test [13], 25.6 µM; in [14], 28.7 µM; in test [15], 33.5 µM.

As for `COc1ccc(C2S/C(=C\c3cccc(O)c3)C(=O)N2NC(=O)Cc2ccccc2)cc1` (stereo unspecified), the TGI in test [1], in [2], in test [3], in test [4], in test [5] and in [6] was greater than 100 µM each time. The TGI in test [16], in [7], in [8], in test [9], in test [10] and in [11] was greater than 100 µM in each case. Also, the TGI in [12], in [13], in test [14] and in test [15] was greater than 100 µM throughout.

For `Nc1ccc(C(=O)NN2C(=O)C(Cl)C2c2cccc([N+](=O)[O-])c2)cc1` (stereo unspecified), the TGI is 33.1 µM in test [1]; 36 µM in test [2]; 45.7 µM in [3]; 40.7 µM in test [4]; 36.8 µM in [5]; 25.1 µM in [6]. Moreover, the TGI in [16] is 33.4 µM; in test [7], 39.3 µM; in test [9], 38.6 µM; in [10], 36.9 µM; in test [11], 35.6 µM; in [13], 40 µM. The results for the TGI in [14] and in test [15] were 51 µM and 31.3 µM, respectively.

As to `CCCOCN1COCN=C1NC#N`, the TGI in test [1] is 45.1 µM; in [2], greater than 100 µM; in test [3], 32.6 µM; in [4], greater than 100 µM; in test [5] it was greater than 100 µM; in test [6] it was greater than 100 µM. The TGI in [16] was greater than 100 µM; in test [7] it was greater than 100 µM; in test [8], 29.8 µM; in test [9], greater than 100 µM; in test [10], greater than 100 µM; in [11], greater than 100 µM. For the same molecule, the TGI in test [13] is 32.3 µM; in test [14], greater than 100 µM; in [15], greater than 100 µM.

As to `Cc1cc(C)c(NS(=O)c2cccc([N+](=O)[O-])c2)c(C)c1` (stereo unspecified), the TGI in test [1], in test [3], in test [4], in test [5], in test [7] and in test [17] was greater than 100 µM in each case. Moreover, the TGI in test [8], in test [9], in test [10], in test [12], in [13] and in test [14] was greater than 100 µM throughout. The molecule also registered a TGI in test [15] greater than 100 µM.
